Key:
[1] = microbe, parasite or virus in culture; conditions: Mycobacterium tuberculosis, 96 h, read-out: pIC50 (converted)
[2] = microbe, parasite or virus in culture; conditions: Mycobacterium tuberculosis, 72 h, read-out: pIC50 (converted)

## Cc1cc(S(=O)(=O)NC(CN)C2CC2)c(F)cc1F (centres undefined)
[1]
  IC50: 18.9 µM
[2]
  IC50: > 501 µM

## Clc1ccc(Cc2nc(CNCCn3cccn3)cs2)cc1
[1]
  IC50: 24.8 µM
[2]
  IC50: 22.8 µM

## COC(=O)c1ccc(CSc2n[nH]c(C)n2)o1
[1]
  IC50: 181 µM
[2]
  IC50: 239 µM

## CC1CCCN(c2cc(CNS(C)(=O)=O)ccn2)C1 (centres undefined)
[1]
  IC50: 277 µM
[2]
  IC50: 449 µM

## CSc1cccc(N(C)C(=O)C(N)c2ccccc2)c1 (centres undefined)
[1]
  IC50: > 501 µM
[2]
  IC50: 233 µM

## Fc1ccc(Cn2ccnn2)c(Cl)c1
[1]
  IC50: > 501 µM
[2]
  IC50: > 501 µM

## Cc1nn(CC(=O)N(C)C)c(=O)c2ccccc12
[1]
  IC50: > 501 µM
[2]
  IC50: > 501 µM

## Cc1nc(C(=O)NCCN2CCCC2)c(C)s1
[1]
  IC50: > 501 µM
[2]
  IC50: 308 µM

## NC1CCN(c2ncccc2Cl)C1 (centres undefined)
[1]
  IC50: 217 µM
[2]
  IC50: 135 µM

## CCOC(=O)C1CCCN(C(=O)c2onc(C)c2Cl)C1 (centres undefined)
[1]
  IC50: 303 µM
[2]
  IC50: 232 µM

## CC(Sc1nc2ccccc2o1)C(=O)N1CCOCC1 (centres undefined)
[1]
  IC50: 11.7 µM
[2]
  IC50: 19.2 µM

## CC(C)N(CCOc1cccc(F)c1)CC(N)=O
[1]
  IC50: 199 µM
[2]
  IC50: 210 µM

## O=C(NCC1(c2ccc(F)cc2)CC1)N1CCC2(CCOC2)C1 (centres undefined)
[1]
  IC50: > 50.1 µM
[2]
  IC50: > 50.1 µM

## CCN1CCN(Cc2cc(C(C)=O)ccc2OC)CC1
[1]
  IC50: > 501 µM
[2]
  IC50: 367 µM

## CC(=O)N1CCCC1c1nnc2n1CCCCC2 (centres undefined)
[1]
  IC50: > 50.1 µM
[2]
  IC50: > 50.1 µM

## CN(C)c1nc(N)nc(CN2CCCC(c3ccccc3)CC2)n1 (centres undefined)
[1]
  IC50: > 50.1 µM
[2]
  IC50: > 50.1 µM

## Cc1ccc(C2CCCN2CCS(C)(=O)=O)s1 (centres undefined)
[1]
  IC50: > 501 µM
[2]
  IC50: 205 µM

## CCOc1ncccc1CNC(=O)c1[nH]ncc1Br
[1]
  IC50: > 501 µM
[2]
  IC50: > 501 µM

## FC(F)Oc1cccc(C2CNCCO2)c1 (centres undefined)
[1]
  IC50: 112 µM
[2]
  IC50: 34 µM

## CCc1noc(CSc2n[nH]c(-c3ccccn3)n2)n1
[1]
  IC50: 25.1 µM
[2]
  IC50: > 50.1 µM

## CN(C)CC(=O)N1CCC2(CCc3cc(-c4cccnc4)ccc32)CC1
[1]
  IC50: > 50.1 µM
[2]
  IC50: > 50.1 µM

## COC(=O)CSCC(=O)Nc1cc(F)cc(F)c1
[1]
  IC50: > 501 µM
[2]
  IC50: 204 µM

## Cc1cc(C(=O)NCc2ccc(F)cc2)[nH]n1
[1]
  IC50: 132 µM
[2]
  IC50: 28 µM

## CN(CC(=O)N1CCOCC1)Cc1cc(Br)cs1
[1]
  IC50: 55.2 µM
[2]
  IC50: 114 µM

## CCN(CC)CCn1cnc(-c2ccccc2)c1-c1ncc[nH]1
[1]
  IC50: 27.2 µM
[2]
  IC50: > 50.1 µM

## CN1CCN(C(=O)c2cc3c(F)cccc3s2)CC1
[1]
  IC50: > 501 µM
[2]
  IC50: 165 µM

## CN(CC(C)(CO)CO)c1ncc(Cl)cc1Cl
[1]
  IC50: 301 µM
[2]
  IC50: 122 µM

## COc1ncc(CN2CCOC(Cc3cccc4ccccc34)C2)cn1 (centres undefined)
[1]
  IC50: > 50.1 µM
[2]
  IC50: > 50.1 µM

## CC(C)Nc1nc(N2CCCC2)nc2c1CN(c1ncc(F)cn1)CC2
[1]
  IC50: 28.3 µM
[2]
  IC50: 46.4 µM

## Cc1nc2c(c(NCc3nc4ccccc4s3)n1)CCNCC2
[1]
  IC50: 45.8 µM
[2]
  IC50: 23.7 µM

## O=C(NCC(=O)N1CCCC1)c1csc2ccccc12
[1]
  IC50: 71.2 µM
[2]
  IC50: 43.9 µM

## O=C1CCCCN1Cn1cc(I)cn1
[1]
  IC50: 318 µM
[2]
  IC50: 251 µM

## O=C(NCCSCc1cccc(Cl)c1)C1CNCCO1 (centres undefined)
[1]
  IC50: 259 µM
[2]
  IC50: 266 µM

## CC(C)c1ccc(NC(=O)CN)cc1
[1]
  IC50: 204 µM
[2]
  IC50: 245 µM

## O=C(C1CC1)N1CCN(Cc2cccc(F)c2)CC1
[1]
  IC50: 210 µM
[2]
  IC50: > 501 µM

## COCCNc1nc(-c2ccc(S(N)(=O)=O)cc2)cs1
[1]
  IC50: > 501 µM
[2]
  IC50: 207 µM

## O=S(=O)(NCc1nccs1)N1CCc2ccccc2C1
[1]
  IC50: 146 µM
[2]
  IC50: 133 µM

## NC(=O)c1ccc(-n2ccnc2-c2cccc(O)c2)cc1N1CCCC1
[1]
  IC50: > 50.1 µM
[2]
  IC50: > 50.1 µM

## O=C(CSc1nnnn1Cc1cccs1)NC1CC1
[1]
  IC50: 216 µM
[2]
  IC50: 492 µM

## O=C1[C@H]2CN(C3CCOC3)C[C@H]2CN1c1ccccc1 (some centres undefined)
[1]
  IC50: > 50.1 µM
[2]
  IC50: > 50.1 µM

## CCC(O)CNc1ccc(-c2nc(CC(C)C)no2)cn1 (centres undefined)
[1]
  IC50: 26.7 µM
[2]
  IC50: 44.9 µM

## CCC1(CO)CCCN(CCn2cc(Cl)cn2)C1 (centres undefined)
[1]
  IC50: 144 µM
[2]
  IC50: 138 µM

From ChEMBL document CHEMBL3988442, “University of Dundee, Small-Polar-MMV Screening Library” (2021)
